Data as given in article PMC3133966 (Nature neuroscience, 2011).

Tests used:
[1] = biological target: T1, KCNQ5 (Kv7.5); presynaptic KCNQ5 homomers (Rattus norvegicus, UniProt F1LY25); experiment: whole-cell patch clamp of rat calyx of Held, outward K+ current; type: cell-based; conditions: read-out: % inhibition at 100 μM
[2] = biological target: T1, KCNQ5 (Kv7.5); presynaptic KCNQ5 homomers; experiment: as above; type: cell-based; conditions: read-out: % of control current remaining at 10 μM

T1 sequence (F1LY25 1-951): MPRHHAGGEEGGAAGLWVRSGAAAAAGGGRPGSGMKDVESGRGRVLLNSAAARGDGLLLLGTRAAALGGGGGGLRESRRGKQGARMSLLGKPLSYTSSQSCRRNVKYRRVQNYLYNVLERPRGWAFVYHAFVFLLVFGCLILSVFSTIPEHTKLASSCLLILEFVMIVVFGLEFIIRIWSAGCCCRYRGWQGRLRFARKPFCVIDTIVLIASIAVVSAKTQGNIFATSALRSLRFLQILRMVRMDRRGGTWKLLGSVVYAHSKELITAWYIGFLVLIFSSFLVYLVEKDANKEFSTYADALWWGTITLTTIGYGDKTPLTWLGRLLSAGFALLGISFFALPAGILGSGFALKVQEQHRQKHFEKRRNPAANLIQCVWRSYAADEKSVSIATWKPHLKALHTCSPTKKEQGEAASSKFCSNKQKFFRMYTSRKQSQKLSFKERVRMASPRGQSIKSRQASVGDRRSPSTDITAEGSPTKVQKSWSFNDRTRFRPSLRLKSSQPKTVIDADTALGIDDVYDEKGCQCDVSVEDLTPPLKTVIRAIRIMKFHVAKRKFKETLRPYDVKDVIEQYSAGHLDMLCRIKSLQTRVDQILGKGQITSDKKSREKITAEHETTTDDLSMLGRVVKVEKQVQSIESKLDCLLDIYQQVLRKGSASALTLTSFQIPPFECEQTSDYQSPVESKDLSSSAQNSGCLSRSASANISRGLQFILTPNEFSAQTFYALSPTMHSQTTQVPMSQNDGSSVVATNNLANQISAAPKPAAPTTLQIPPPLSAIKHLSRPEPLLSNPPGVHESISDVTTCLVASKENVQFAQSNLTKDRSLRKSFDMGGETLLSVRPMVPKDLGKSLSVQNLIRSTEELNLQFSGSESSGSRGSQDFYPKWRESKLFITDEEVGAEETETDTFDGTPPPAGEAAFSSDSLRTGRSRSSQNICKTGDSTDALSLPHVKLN

For `O=C(O)Cc1ccccc1Nc1c(Cl)cccc1Cl` [diclofenac], the inhibition at 100 µM [1] was 53 ± 4%.
For `O=C1N(c2ccccc2)c2ccccc2C1(Cc1ccncc1)Cc1ccncc1` [linopirdine], the remaining activity at 10 µM [2] was 17 ± 4%.
